We go through 10 sequences from article PMC3338516 (PLoS ONE, 2012).

Like-named read-outs stand apart in the source and are kept apart here. Ends that are not written are not given here. A value given as a limit tells only on which side of the number the result lay.

The target of one experiment is T1, HLA-A0201 (Homo sapiens, UniProt P04439, D140Y/D185E/D98H/E176V/E277Q/G131W/G231S/I119V/I121R/I166T/I218V/L300P/L318F/N151K/N90K/P208A/P217A/Q86G/Q94H/R138H/R169H/T345S).
T1 construct: endogenous in cells
Kind of experiment: Competition-based cellular peptide binding assay, HLA-A0201. The note with it: for IC50: mild-acid-treated B-LCLs, 150 nM fluorescent reference peptide […], overnight 4°C, flow cytometry, mean of two independent experiments, read-out: HLA-A201 IC50. Here is the method:
To test binding affinity of eluted and predicted peptides to HLA-I, competition-based cellular peptide binding assays were performed as described earlier. […] Cells were buffered with cold IMDM containing 2% FCS immediately thereafter and resuspended at a concentration of 4×10^5 cells/ml in 2% FCS and 1.5 µg/ml human β2m (Sigma-Aldrich). […] The following HLA-I allele-restricted reference peptides were used: […] (for HLA-B0702) and […] (for HLA-B4002), each containing a fluorescent label bound to the cysteine residue. After overnight incubation at 4°C, cells were washed twice in PBS supplemented with 1% BSA and fixed in 0.5% paraformaldehyde. Cells were analyzed with CellQuestPro or FlowJo software (Tree Star, Ashland, OR, USA).
For orientation: A flow cytometer gives signals particle by particle.

The target of experiment [1] is T2, HLA-B0702 (Homo sapiens, UniProt P01889).
T2 construct: endogenous in cells
In words: Competition-based cellular peptide binding assay, HLA-B0702. The settings on record: for IC50: mild-acid-treated B-LCLs, 150 nM fluorescent reference peptide […], overnight 4°C, flow cytometry, mean of two independent experiments. Here is the method:
(§1) To test binding affinity of eluted and predicted peptides to HLA-I, competition-based cellular peptide binding assays were performed as described earlier. In short, B-LCLs were treated with a mild acid (1∶1 mixture of 0.263M C6H8O7*H2O and 0.126M Na2HPO4*2H2O) for 1 min to remove the naturally HLA-I bound peptides. Cells were buffered with cold IMDM containing 2% FCS immediately thereafter and resuspended at a concentration of 4×10^5 cells/ml in 2% FCS and 1.5 µg/ml human β2m (Sigma-Aldrich). Then, 4×10^4 cells/well were incubated with 150 nM of fluorescently labeled reference peptide and a serial dilution of one of the eluted or predicted peptides. The following HLA-I allele-restricted reference peptides were used: […] (for HLA-A0201), […] (for HLA-A0301), […] (for HLA-B0702) and […] (for HLA-B4002), each containing a fluorescent label bound to the cysteine residue. After overnight incubation at 4°C, cells were washed twice in PBS supplemented with 1% BSA and fixed in 0.5% paraformaldehyde. Cells were analyzed with CellQuestPro or FlowJo software (Tree Star, Ashland, OR, USA). IC50 values were defined with GraphPad Prism 4.02 (GraphPad Software Inc., La Jolla, USA) using the following formula: Y = Bmax*X/(IC50+X), in which Bmax is the maximal binding capacity of the positive control peptide, X the concentration of peptide tested and IC50 the concentration of peptide needed to reach half-maximal binding.

The target of experiment [2] is T3, HLA-B4002 (Homo sapiens, UniProt P01889, A65T/A93T/A95T/D138N/D201E/D98Y/E176V/E204Q/E69K/K202T/N87E/Q56L/Q94N/R180L/S48T/Y33H/Y91S). The note with it: Figure 3 legend; positive control peptide; cited from earlier work. An excerpt:
(§2) (A0201 peptide), […] (A0301 peptide), SPSVDK ...

The target in the next experiment is T4, HLA-A0301 (Homo sapiens, UniProt P04439).
T4 construct: endogenous in cells
Kind of experiment: Competition-based cellular peptide binding assay, HLA-A0301. The settings on record: Table 2; mild-acid-treated B-LCLs, 150 nM fluorescent reference peptide […], overnight 4°C, flow cytometry; mean of two independent experiments. Here is the method:
as §1

The target of experiment [3] is T3, HLA-B4002. Kind of experiment: Competition-based cellular peptide binding assay, HLA-B4002. The note with it: Table 2; mild-acid-treated B-LCLs, 150 nM fluorescent reference peptide […], overnight 4°C, flow cytometry; mean of two independent experiments. How it is done:
as §1

In experiment [4] the target is T2, HLA-B0702. The settings on record: Figure 3 legend; positive control peptide; cited from earlier work.
Text: as §2

Setting [5] is: Table 1, class by IC50 cut-off values.
Setting [6] is: Table 1, concentration for half maximal competition.

On to ETIDWKVFESW [Peptide 5], for which the “HLA-A201 Affinity” value at HLA-A0201 (setting [5]) is recorded as “– (no binding, >100 µM)”. For the same sequence, the IC50 at HLA-A0201 (setting [6]) and at HLA-B0702 [1] (Table 1) was > 100 µM each time. Moreover, the “HLA-B0702 Affinity” value at HLA-B0702 [1] (setting [5]) was “– (no binding, >100 µM)”.

As to GEFGGFGSV, in the experiment with HLA-B4002 [2], the IC50 was 0.2 µM.

In the case of SRGALYTGFSIL [Peptide 1], the IC50 at HLA-A0201 (setting [6]) came out at 10.9 µM; at HLA-B0702 [1] (Table 1) it was 1.39 µM.

As to RMATPLLMQA, the IC50 turned out to be 8.08 µM on HLA-A0201 (Table 2), 7.75 µM on HLA-B0702 [1] (Table 2), 2.45 µM at HLA-A0301 and 2.05 µM on HLA-B4002 [3].

Take RMATPLLMQAL [RMATPLLMQAL]: the IC50 on HLA-A0201 (Table 2) is 4.49 µM; on HLA-B0702 [1] (Table 2) it was 1.85 µM; at HLA-A0301, 4.28 µM; at HLA-B4002 [3], 0.48 µM.

On to LPMGALPQGPM [Peptide 4], for which the IC50 at HLA-A0201 (setting [6]) is > 100 µM; on HLA-B0702 [1] (Table 1), 0.41 µM.

In the case of RMATPLLMQALPM [Peptide 3], the IC50 is 13.7 µM at HLA-A0201 (setting [6]), 0.36 µM at HLA-B0702 [1] (Table 1), 3.35 µM at HLA-A0301 and 3.43 µM at HLA-B4002 [3].

Turning to KMRMATPLL, the IC50 is 10.9 µM on HLA-A0201 (Table 2), 0.47 µM at HLA-B0702 [1] (Table 2), 6.43 µM on HLA-A0301 and 0.44 µM at HLA-B4002 [3].

With SPSVDKARAEL, the IC50 with HLA-B0702 [4] is 0.7 µM.

For LLAGQATT [Peptide 2], the IC50 on HLA-A0201 (setting [6]) is > 100 µM; at HLA-B0702 [1] (Table 1), 40.9 µM.

As a reminder, the IC50 is the point on the concentration scale where inhibition reaches its midpoint.
